Experimental data published in patent publication US20240376154A1, “BIS-INTERCALATING PEPTIDES, CONJUGATES AND METHODS OF USE” (ZYMEWORKS BC INC., priority 2023, published 2024).

Conditions: amide bond; 32-membered ring
“Benzyl tert-butyl ((4aS,8R,14aS,23S,27R,33aS)-23-isopropyl-19,22,38-trimethyl-5,9,15,18,21,24,28,34,37,40-decaoxotetracontahydro-11H-tripyrido[1,2-a:1′,2′-j:1″,2″-q][1,4,7,10,13,17,20,23,26,29]decaazacyclodotriacontine-8,27-diyl)dicarbamate” showed a ring closure, isolated yield of 64%.
In the case of “Benzyl tert-butyl ((5aS,9R,15aS,24S,28R,34aS)-24-isopropyl-20,23,39-trimethyl-6,10,16,19,22,25,29,35,38,41-decaoxotetracontahydro-1H,12H-azepino[1,2-j]dipyrido[1,2-a:1′,2′-q][1,4,7,10,13,17,20,23,26,29]decaazacyclodotriacontine-9,28-diyl)dicarbamate”, the ring closure, isolated yield is reported as 22%.
“Benzyl tert-butyl ((7R,8R,11S,19aS,26R,30S,38aS)-11,30-di((S)-sec-butyl)-8,12,15,31,34-pentamethyl-6,10,13,16,19,25,29,32,35,38-decaoxotetratriacontahydro-2H,6H,10H-dipyrido[2,1-b1: 2′,1′-l][1]oxa[4,7,10,13,17,20,23,26,29]nonaazacyclodotriacontine-7,26-diyl)dicarbamate” showed a ring closure, isolated yield of 71%.
With “Benzyl tert-butyl ((7R,10aS,22aS,29R,32aS,44aS)-6,10,16,22,28,32,38,44-octaoxotetracontahydro-2H,19H-tetrapyrido[1,2-a1: 1′,2′-d: 1″,2″-k: 1′″,2′″-t][1,17]dioxa[4,7,11,14,20,23,27,30]octaazacyclodotriacontine-7,29-diyl)dicarbamate” the ring closure, isolated yield was 44%.
For “Benzyl tert-butyl ((7R,10aS,23aS,30R,33aS,46aS)-19,42-dimethyl-6,10,17,20,23,29,33,40,43,46-decaoxotetratetracontahydro-6H,29H-bis(azepino)[1,2-j:1′,2′-z]dipyrido[1,2-a:1′,2′-q][1,4,7,10,13,17,20,23,26,29]decaazacyclodotriacontine-7,30-diyl)dicarbamate”, the ring closure, isolated yield was 74%.
In the case of “Benzyl tert-butyl ((7R,11S,19aS,26R,30S,38aS)-11,15,30,34-tetraisopropyl-12,31-dimethyl-6,10,13,16,19,25,29,32,35,38-decaoxohexatriacontahydro-2H,6H-dipyrido[1,2-a:1′,2′-q][1,4,7,10,13,17,20,23,26,29]decaazacyclodotriacontine-7,26-diyl)dicarbamate”, the ring closure, isolated yield is reported as 94%.
“Benzyl tert-butyl ((7R,11S,19aS,26R,30S,38aS)-11,30-di((S)-sec-butyl)-12,15,31,34-tetramethyl-6,10,13,16,19,25,29,32,35,38-decaoxohexatriacontahydro-2H,6H-dipyrido[1,2-a:1′,2′-q][1,4,7,10,13,17,20,23,26,29]decaazacyclodotriacontine-7,26-diyl)dicarbamate” gave a ring closure, isolated yield of 90%.
“Benzyl tert-butyl ((7R,11S,19aS,26R,30S,38aS)-11,30-dicyclohexyl-12,15,31,34-tetramethyl-6,10,13,16,19,25,29,32,35,38-decaoxohexatriacontahydro-2H,6H-dipyrido[1,2-a:1′,2′-q][1,4,7,10,13,17,20,23,26,29]decaazacyclodotriacontine-7,26-diyl)dicarbamate” gave a ring closure, isolated yield of 72%.
For “Benzyl tert-butyl ((7R,11S,19aS,26R,30S,38aS)-11,30-diisopropyl-12,15,31,34-tetramethyl-6,10,13,16,19,25,29,32,35,38-decaoxohexatriacontahydro-2H,6H-dipyrido[1,2-a:1′,2′-q][1,4,7,10,13,17,20,23,26,29]decaazacyclodotriacontine-7,26-diyl)dicarbamate”, the ring closure, isolated yield was 69%.
Substance “Benzyl tert-butyl ((7R,11S,19aS,26R,30S,38aS)-11,30-diisopropyl-12,15,31,34-tetramethyl-6,10,13,16,19,25,29,32,35,38-decaoxotetratriacontahydro-2H,6H,10H-dipyrido[2,1-b1: 2′,1′-l][1]oxa[4,7,10,13,17,20,23,26,29]nonaazacyclodotriacontine-7,26-diyl)dicarbamate” has a ring closure, isolated yield of 63%.
For “Benzyl tert-butyl ((7R,11S,19aS,26R,30S,38aS)-11,30-diisopropyl-12,31-dimethyl-6,10,13,16,19,25,29,32,35,38-decaoxo-15,34-dipropylhexatriacontahydro-2H,6H-dipyrido[1,2-a:1′,2′-q][1,4,7,10,13,17,20,23,26,29]decaazacyclodotriacontine-7,26-diyl)dicarbamate”, the ring closure, isolated yield was 85%.
For “Benzyl tert-butyl ((7R,11S,19aS,26R,30S,38aS)-11,30-diisopropyl-12,31-dimethyl-6,10,13,16,19,25,29,32,35,38-decaoxohexatriacontahydro-2H,6H-dipyrido[1,2-a:1′,2′-q][1,4,7,10,13,17,20,23,26,29]decaazacyclodotriacontine-7,26-diyl)dicarbamate”, the ring closure, isolated yield was 53%.
For “Benzyl tert-butyl ((7R,11S,19aS,26R,30S,38aS)-11,30-diisopropyl-12,31-dimethyl-6,10,13,19,25,29,32,38-octaoxodotriacontahydro-2H,6H,16H,25H-dipyrido[1,2-a1:1′,2′-k][1,17]dioxa[4,7,11,14,20,23,27,30]octaazacyclodotriacontine-7,26-diyl)dicarbamate”, the ring closure, isolated yield was 58%.
“Benzyl tert-butyl ((7R,11S,19aS,26R,30S,38aS)-11-((S)-sec-butyl)-30-isopropyl-12,15,31,34-tetramethyl-6,10,13,16,19,25,29,32,35,38-decaoxohexatriacontahydro-2H,6H-dipyrido[1,2-a:1′,2′-q][1,4,7,10,13,17,20,23,26,29]decaazacyclodotriacontine-7,26-diyl)dicarbamate” showed a ring closure, isolated yield of 75%.
Substance “Benzyl tert-butyl ((7R,11S,19aS,26R,30S,38aS)-11-cyclohexyl-30-isopropyl-12,15,31,34-tetramethyl-6,10,13,16,19,25,29,32,35,38-decaoxohexatriacontahydro-2H,6H-dipyrido[1,2-a:1′,2′-q][1,4,7,10,13,17,20,23,26,29]decaazacyclodotriacontine-7,26-diyl)dicarbamate” has a ring closure, isolated yield of 58%.
“Benzyl tert-butyl ((7R,11S,19aS,26R,30S,38aS)-11-isopropyl-12,15,31,34-tetramethyl-6,10,13,16,19,25,29,32,35,38-decaoxo-30-phenylhexatriacontahydro-2H,6H-dipyrido[1,2-a:1′,2′-q][1,4,7,10,13,17,20,23,26,29]decaazacyclodotriacontine-7,26-diyl)dicarbamate” showed a ring closure, isolated yield of 26%.
For “Benzyl tert-butyl ((7R,11S,19aS,26R,30S,38aS)-12,31-diethyl-11,30-diisopropyl-15,34-dimethyl-6,10,13,16,19,25,29,32,35,38-decaoxohexatriacontahydro-2H,6H-dipyrido[1,2-a:1′,2′-q][1,4,7,10,13,17,20,23,26,29]decaazacyclodotriacontine-7,26-diyl)dicarbamate”, the ring closure, isolated yield was 40%.
Substance “Benzyl tert-butyl ((7R,11S,19aS,26R,30S,38aS)-15,34-diethyl-11,30-diisopropyl-12,31-dimethyl-6,10,13,16,19,25,29,32,35,38-decaoxohexatriacontahydro-2H,6H-dipyrido[1,2-a:1′,2′-q][1,4,7,10,13,17,20,23,26,29]decaazacyclodotriacontine-7,26-diyl)dicarbamate” has a ring closure, isolated yield of 68%.
Work on “Benzyl tert-butyl ((7R,19aS,26R,30S,38aS)-30-isopropyl-11,11,12,15,31,34-hexamethyl-6,10,13,16,19,25,29,32,35,38-decaoxohexatriacontahydro-2H,6H-dipyrido[1,2-a:1′,2′-q][1,4,7,10,13,17,20,23,26,29]decaazacyclodotriacontine-7,26-diyl)dicarbamate” yielded a ring closure, isolated yield of 37%.
Substance “Benzyl tert-butyl ((7′R,19a'S,26′R,30'S,38a'S)-30′-isopropyl-12′,15′,31′,34′-tetramethyl-6′,10′,13′,16′,19′,25′,29′,32′,35′,38′-decaoxotetratriacontahydro-2′H,6′H,12′H-spiro[cyclobutane-1,11′-dipyrido[1,2-a:1′,2′-q][1,4,7,10,13,17,20,23,26,29]decaazacyclodotriacontine]-7′,26′-diyl)dicarbamate” has a ring closure, isolated yield of 43%.
“Benzyl tert-butyl ((7′R,19a'S,26′R,30'S,38a'S)-30′-isopropyl-12′,15′,31′,34′-tetramethyl-6′,10′,13′,16′,19′,25′,29′,32′,35′,38′-decaoxotetratriacontahydro-2′H,6′H,12′H-spiro[cyclopropane-1,11′-dipyrido[1,2-a:1′,2′-q][1,4,7,10,13,17,20,23,26,29]decaazacyclodotriacontine]-7′,26′-diyl)dicarbamate” gave a ring closure, isolated yield of 48%.
For “Benzyl tert-butyl ((13S,16R,19aS,32S,35R,38aS)-13,32-diisopropyl-8,14,27,33-tetramethyl-6,9,12,15,19,25,28,31,34,38-decaoxohexatriacontahydro-2H,6H-dipyrido[2,1-c: 2′,1′-s][1,4,7,10,13,17,20,23,26,29]decaazacyclodotriacontine-16,35-diyl)dicarbamate”, the ring closure, isolated yield was 57%.
Work on “Bis(4-nitrobenzyl) ((7R,11S,19aS,26R,30S,38aS)-11,30-diisopropyl-12,15,31,34-tetramethyl-6,13,16,19,25,32,35,38-octaoxodotriacontahydro-2H,6H,10H,25H-dipyrido[2,1-b1: 2′,1′-l][1,17]dioxa[4,7,10,13,20,23,26,29]octaazacyclodotriacontine-7,26-diyl)dicarbamate” yielded a ring closure, isolated yield of 68%.
Substance “Di-tert-butyl ((7R,8R,11S,19aS,26R,27R,30S,38aS)-11,30-diisopropyl-8,12,15,27,31,34-hexamethyl-6,10,13,16,19,25,29,32,35,38-decaoxodotriacontahydro-2H,6H,10H,25H-dipyrido[2,1-b1: 2′,1′-l][1,17]dioxa[4,7,10,13,20,23,26,29]octaazacyclodotriacontine-7,26-diyl)dicarbamate” has a ring closure, isolated yield of 50%.
